Experimental data: patent publication US20230357162A1, “COMPOUNDS, COMPOSITIONS AND METHODS” (Denali Therapeutics Inc., priority 2020, published 2023)

Tested on: IL-1β secretion, THP-1 cells
Experiment: IL-1β secretion assay in PMA-differentiated THP-1 cells stimulated with LPS and nigericin (ELISA readout)
Assay type: cell-based
Details: Homo sapiens, THP-1, inhibition of IL-1β secretion, 25 ng/mL LPS then nigericin
Method in brief: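 THP-1 cells differentiated with 5 ng/mL PMA for 40 h, primed in serum-free medium with 25 ng/mL LPS for 2 h, then compound (0.5% DMSO) for 1 h before nigericin for 2 h at 37°C. Supernatant IL-1β quantified by ELISA; normalized to high (LPS + 5 µM nigericin) and low (LPS only) controls.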

IC50 (class column of Table 3) [µM] | IC50 (numeric column of Table 3) [µM] | SMILES
< 10 | 2.92 | CC(C)c1nn(CC(=O)NCC2CCCO2)c(=O)c2ccc(Br)cc12 (stereo not drawn) [Example 130, 2-(6-bromo-1-oxo-4-propan-2-ylphthalazin-2-yl)-N-(oxolan-2-ylmethyl)acetamide]
< 10 | 1.13 | CC(C)c1nn(CC(=O)NC2CCOCC2)c(=O)c2ccc(Br)cc12 [Example 53, 2-(6-bromo-1-oxo-4-propan-2-ylphthalazin-2-yl)-N-(oxan-4-yl)acetamide]
< 10 | 0.159 | CCN1CCC[C@@H](NC(=O)Cn2nc(C(C)C)c3cc(Br)ccc3c2=O)C1 [Example 3, (R)-2-(6-Bromo-4-isopropyl-1-oxophthalazin-2(1H)-yl)-N-(1-ethylpiperidin-3-yl)acetamide]
< 10 | 2.59 | CCN1CC(NC(=O)Cn2nc(C(C)C)c3cc(Br)ccc3c2=O)CC(F)(F)C1 (stereo not drawn) [Example 12]
< 10 | 5.26 | CC(C)c1nn(CC(=O)NCc2ccnn2C)c(=O)c2ccc(Br)cc12 [Example 128, 2-(6-bromo-1-oxo-4-propan-2-ylphthalazin-2-yl)-N-[(2-methylpyrazol-3-yl)methyl]acetamide]
< 10 | 0.286 | COc1ccc(NC(=O)Cn2nc(C(C)C)c3cc(Br)ccc3c2=O)cn1 [Example 29, 2-(6-bromo-1-oxo-4-propan-2-ylphthalazin-2-yl)-N-(6-methoxypyridin-3-yl)acetamide]
< 10 | 0.349 | CC(C)c1nn(CC(=O)NC2CC3(COC3)C2)c(=O)c2ccc(Br)cc12 [Example 54, 2-(6-bromo-1-oxo-4-propan-2-ylphthalazin-2-yl)-N-(2-oxaspiro[3.3]heptan-6-yl)acetamide]
< 10 | 0.519 | CC(C)c1nn(CC(=O)Nc2ccc(Cl)nc2)c(=O)c2ccc(Br)cc12 [Example 30, 2-(6-bromo-1-oxo-4-propan-2-ylphthalazin-2-yl)-N-(6-chloropyridin-3-yl)acetamide]
< 10 | 3.99 | CC(C)c1nn(CC(=O)NCC2COCCN2C)c(=O)c2ccc(Br)cc12 (stereo not drawn) [Example 58, 2-(6-bromo-1-oxo-4-propan-2-ylphthalazin-2-yl)-N-[(4-methylmorpholin-3-yl)methyl]acetamide]
< 10 | 0.737 | CC(C)c1nn(CC(=O)NC23CC(F)(C2)C3)c(=O)c2ccc(Br)cc12 [Example 118, 2-(6-bromo-1-oxo-4-propan-2-ylphthalazin-2-yl)-N-(3-fluoro-1-bicyclo[1.1.1]pentanyl)a cetamide]
< 10 | 1.17 | CC(C)c1nn(CC(=O)NC2CCCC2(F)F)c(=O)c2ccc(Br)cc12 (stereo not drawn) [Example 46, 2-(6-bromo-1-oxo-4-propan-2-ylphthalazin-2-yl)-N-(2,2-difluorocyclopentyl)acet amide]
< 10 | 0.121 | CC(C)c1nn(CC(=O)Nc2ncncc2F)c(=O)c2ccc(Br)cc12 [Example 6, 2-(6-Bromo-4-isopropyl-1-oxophthalazin-2(1H)-yl)-N-(5-fluoropyrimidin-4-yl)acetamide]
< 10 | 0.11 | CC(C)c1nn(CC(=O)Nc2ncc(Cl)cc2F)c(=O)c2ccc(Br)cc12 [Example 68, 2-(6-bromo-1-oxo-4-propan-2-ylphthalazin-2-yl)-N-(5-chloro-3-fluoropyridin-2-yl)acetamide]
< 10 | 0.71 | CC(C)c1nn(CC(=O)Nc2cccnc2)c(=O)c2ccc(Br)cc12 [Example 55, 2-(6-bromo-1-oxo-4-propan-2-ylphthalazin-2-yl)-N-pyridin-3-ylacetamide]
< 10 | 4.95 | CC(C)c1nn(CC(=O)Nc2c(F)cncc2F)c(=O)c2ccc(Br)cc12 [Example 37, 2-(6-bromo-1-oxo-4-propan-2-ylphthalazin-2-yl)-N-(3,5-difluoropyridin-4-yl)acetamide]
< 10 | 0.058 | CC(C)c1nn(CC(=O)N[C@@H]2CCCN(C3CCC3)C2)c(=O)c2ccc(Br)cc12 [Example 106, 2-(6-bromo-1-oxo-4-propan-2-ylphthalazin-2-yl)-N-[(3R)-1-cyclobutylpiperidin-3-yl]acetamide]

The next lines start with the compound.

SMILES | IC50 (class column of Table 3) [µM] | IC50 (numeric column of Table 3) [µM]
CC(c1ccc2c(=O)n(CC(=O)Nc3ncncc3F)nc(Br)c2c1)C(F)(F)F (stereo not drawn) [Example 18, 2-[4-bromo-1-oxo-6-(1,1,1-trifluoropropan-2-yl)phthalazin-2-yl]-N-(5-fluoropyrimidin-4-yl)acetamide] | 10 to 15 | 10.7
CN(C)c1ccc2c(=O)n(CC(=O)Nc3ncc(F)cn3)nc(Br)c2c1 [Example 180, 2-[4-bromo-6-(dimethylamino)-1-oxophthalazin-2-yl]-N-(5-fluoropyrimidin-2-yl)acetamide] | < 10 | 4.86
O=C(Cn1nc(C(F)F)c2ccc(Br)cc2c1=O)Nc1ncccn1 [Example 94, 2-[7-bromo-4-(difluoromethyl)-1-oxo-phthalazin-2-yl]-N-pyrimidin-2-yl-acetamide] | < 10 | 6.05
O=C(Cn1nc(C(F)F)c2cc(Br)ccc2c1=O)Nc1ncc(Cl)cc1F [Example 134] | < 10 | 1.21
CSc1nn(CC(=O)Nc2ncc(F)cn2)c(=O)c2ccc(Br)cc12 [Example 149, 2-(6-bromo-4-methylsulfanyl-1-oxophthalazin-2-yl)-N-(5-fluoropyrimidin-2-yl)acetamide] | < 10 | 0.782
O=C(Cn1nc(C(F)F)c2c(F)c(Br)ccc2c1=O)Nc1ncc(Cl)cn1 [Example 182] | < 10 | 0.068
O=C(Cn1nc(OC2CC2)c2cc(Br)ccc2c1=O)N[C@@H]1CCCN(C2CCC2)C1 [Example 177] | < 10 | 0.213
CC(C)c1nn(CC(=O)N2CCCc3ccccc32)c(=O)c2ccc(Br)cc12 [Example 73, 6-bromo-2-[2-(3,4-dihydro-2H-quinolin-1-yl)-2-oxoethyl]-4-propan-2-ylphthalazin-1-one] | < 10 | 9.63
O=C(Cn1nc(Br)c2cc(Br)ccc2c1=O)Nc1ncc(F)cn1 [Example 181, 2-(4,6-Dibromo-1-Oxophthalazin-2-yl)-N-(5-Fluoropyrimidin-2-yl)Acetamide] | < 10 | 0.23
O=C(Cn1nc(C(F)F)c2c(F)c(Br)ccc2c1=O)Nc1ncc(F)cn1 [Example 26, 2-[6-bromo-4-(difluoromethyl)-5-fluoro-1-oxophthalazin-2-yl]-N-(5-fluoropyrimidin-2-yl)acetamide] | < 10 | 0.078
O=C(Cn1nc(C(F)F)c2c(F)c(C3CCC3)ccc2c1=O)Nc1ncc(F)cn1 [Example 185, 2-[6-cyclobutyl-4-(difluoromethyl)-5-fluoro-1-oxophthalazin-2-yl]-N-(5-fluoropyrimidin-2-yl)acetamide] | < 10 | 2.09
N#Cc1cnc(NC(=O)Cn2nc(C(F)F)c3cc(Br)ccc3c2=O)nc1 [Example 136] | < 10 | 0.181
O=C(Cn1nc(OC(F)(F)F)c2ccc(Br)cc2c1=O)Nc1ncncc1F [Example 83, 2-[7-Bromo-1-Oxo-4-(Trifluoromethoxy)Phthalazin-2-yl]-N-(5-Fluoropyrimidin-4-yl)Acetamide] | > 15 | > 50
CC(C)c1nn(CC(=O)Nc2ncncc2F)c(=O)c2cc(C(F)(F)F)ccc12 [Example 88, N-(5-fluoropyrimidin-4-yl)-2-[1-oxo-4-propan-2-yl-7-(trifluoromethyl)phthalazin-2-yl]acetamide] | > 15 | > 50
CC(C)c1nn(CC(=O)Nc2ncc(F)cc2Cl)c(=O)c2ccc(Br)cc12 [Example 115, 2-(6-bromo-1-oxo-4-propan-2-ylphthalazin-2-yl)-N-(3-chloro-5-fluoropyridin-2-yl)acetamide] | < 10 | 1.53
O=C(Cn1nc(C(F)(F)F)c2cc(Br)ccc2c1=O)Nc1ncncc1F [Example 131, 2-[6-bromo-1-oxo-4-(trifluoromethyl)phthalazin-2-yl]-N-(5-fluoropyrimidin-4-yl)acetamide] | < 10 | 1.27
O=C(Cn1nc(OCC(F)(F)F)c2cc(Br)ccc2c1=O)Nc1ncc(F)cn1 [Example 138, 2-[6-bromo-1-oxo-4-(2,2,2-trifluoroethoxy)phthalazin-2-yl]-N-(5-fluoropyrimidin-2-yl)acetamide] | 10 to 15 | 11.1
